Measurements reported in PubChem BioAssay (NCI).
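Cells were grown in 96-well plates and exposed to each compound for 48 hours at five concentrations; endpoints were interpolated linearly between bracketing concentrations, or set to the highest concentration if not reached. GI50 = concentration required for 50% inhibition of growth. TGI: total growth inhibition.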

Columns and labels:
Assay in all cases: NCI tumour cell line growth inhibition, 48 h
UACC-62 melanoma = system: UACC-62 melanoma
IGROV1 ovarian = system: IGROV1 ovarian
PC-3 prostate = system: PC-3 prostate
A549 NSCLC = system: A549 NSCLC
OVCAR-8 ovarian = system: OVCAR-8 ovarian
NCI-H226 lung = system: NCI-H226 lung
DU-145 prostate = system: DU-145 prostate
NCI-H460 lung = system: NCI-H460 lung
SK-OV-3 ovarian = system: SK-OV-3 ovarian
SW-620 colon = system: SW-620 colon
SR leukemia = system: SR leukemia
CCRF-CEM leukemia = system: CCRF-CEM leukemia
ACHN renal = system: ACHN renal
NCI-H23 lung = system: NCI-H23 lung
SF-295 CNS = system: SF-295 CNS
HOP-92 NSCLC = system: HOP-92 NSCLC
T-47D breast = system: T-47D breast
KM12 colon = system: KM12 colon
HCT-15 colon = system: HCT-15 colon
U251 CNS = system: U251 CNS
HCT-116 colon = system: HCT-116 colon
OVCAR-5 ovarian = system: OVCAR-5 ovarian
EKVX NSCLC = system: EKVX NSCLC
SNB-19 CNS = system: SNB-19 CNS
HCC-2998 colon = system: HCC-2998 colon
SF-268 CNS = system: SF-268 CNS
SK-MEL-28 melanoma = system: SK-MEL-28 melanoma
786-0 renal = system: 786-0 renal
SNB-75 CNS = system: SNB-75 CNS
COLO 205 colon = system: COLO 205 colon
K-562 leukemia = system: K-562 leukemia
MALME-3M melanoma = system: MALME-3M melanoma
HOP-62 NSCLC = system: HOP-62 NSCLC
NCI-H522 lung = system: NCI-H522 lung
NCI/ADR-RES ovarian = system: NCI/ADR-RES ovarian
MCF7 breast = system: MCF7 breast
UO-31 renal = system: UO-31 renal
HL-60(TB) leukemia = system: HL-60(TB) leukemia
CAKI-1 renal = system: CAKI-1 renal
M14 melanoma = system: M14 melanoma
RXF 393 renal = system: RXF 393 renal
SK-MEL-5 melanoma = system: SK-MEL-5 melanoma
OVCAR-3 ovarian = system: OVCAR-3 ovarian
UACC-257 melanoma = system: UACC-257 melanoma
HS 578T breast = system: HS 578T breast
SF-539 CNS = system: SF-539 CNS
A498 renal = system: A498 renal
LOX IMVI melanoma = system: LOX IMVI melanoma
MOLT-4 leukemia = system: MOLT-4 leukemia
SK-MEL-2 melanoma = system: SK-MEL-2 melanoma
OVCAR-4 ovarian = system: OVCAR-4 ovarian
MDA-MB-435 = system: MDA-MB-435
TK-10 renal = system: TK-10 renal
RPMI-8226 leukemia = system: RPMI-8226 leukemia
MDA-MB-231 breast = system: MDA-MB-231 breast
HT29 colon = system: HT29 colon
SN12C renal = system: SN12C renal
BT-549 breast = system: BT-549 breast

Question: For `CC(CN(C)C)Oc1ccccc1NC1=C(Cl)C(=O)C(Nc2ccccc2OC(C)CN(C)C)=C(Cl)C1=O` (stereo unspecified), which GI50 (UACC-62 melanoma) is on record?
Answer: 1550 nM

Question: What about the TGI (UACC-62 melanoma) of the same molecule?
Answer: 3.05 µM

Question: What about the GI50 (IGROV1 ovarian) of the same molecule?
Answer: 580 nM

Question: And the TGI (IGROV1 ovarian)?
Answer: 1880 nM

Question: What about the GI50 (PC-3 prostate) of the same molecule?
Answer: 1330 nM

Question: What about the TGI (PC-3 prostate) of the same molecule?
Answer: 2860 nM

Question: And the GI50 (A549 NSCLC)?
Answer: 1700 nM

Question: And the TGI (A549 NSCLC)?
Answer: 3.24 µM

Question: And the GI50 (OVCAR-8 ovarian)?
Answer: 337 nM

Question: What about the TGI (OVCAR-8 ovarian) of the same molecule?
Answer: 1710 nM

Question: What about the GI50 (NCI-H226 lung) of the same molecule?
Answer: 1410 nM

Question: And the TGI (NCI-H226 lung)?
Answer: 2910 nM

Question: What about the GI50 (DU-145 prostate) of the same molecule?
Answer: 255 nM

Question: And the TGI (DU-145 prostate)?
Answer: 686 nM

Question: And the GI50 (NCI-H460 lung)?
Answer: 1300 nM

Question: What about the TGI (NCI-H460 lung) of the same molecule?
Answer: 2900 nM

Question: What about the GI50 (SK-OV-3 ovarian) of the same molecule?
Answer: 2290 nM

Question: What about the TGI (SK-OV-3 ovarian) of the same molecule?
Answer: 5.43 µM

Question: And the GI50 (SW-620 colon)?
Answer: 175 nM

Question: What about the TGI (SW-620 colon) of the same molecule?
Answer: 357 nM

Question: And the GI50 (SR leukemia)?
Answer: 265 nM

Question: What about the TGI (SR leukemia) of the same molecule?
Answer: 1170 nM

Question: And the GI50 (CCRF-CEM leukemia)?
Answer: 265 nM

Question: What about the TGI (CCRF-CEM leukemia) of the same molecule?
Answer: 882 nM

Question: What about the GI50 (ACHN renal) of the same molecule?
Answer: 174 nM

Question: What about the TGI (ACHN renal) of the same molecule?
Answer: 312 nM

Question: What about the GI50 (NCI-H23 lung) of the same molecule?
Answer: 273 nM

Question: And the TGI (NCI-H23 lung)?
Answer: 915 nM

Question: And the GI50 (SF-295 CNS)?
Answer: 1830 nM

Question: What about the TGI (SF-295 CNS) of the same molecule?
Answer: 3.46 µM

Question: What about the GI50 (HOP-92 NSCLC) of the same molecule?
Answer: 268 nM

Question: What about the TGI (HOP-92 NSCLC) of the same molecule?
Answer: 807 nM

Question: And the GI50 (T-47D breast)?
Answer: 175 nM

Question: And the TGI (T-47D breast)?
Answer: 455 nM

Question: What about the GI50 (KM12 colon) of the same molecule?
Answer: 1200 nM

Question: What about the TGI (KM12 colon) of the same molecule?
Answer: 2570 nM

Question: What about the GI50 (HCT-15 colon) of the same molecule?
Answer: 176 nM

Question: And the TGI (HCT-15 colon)?
Answer: 375 nM

Question: What about the GI50 (U251 CNS) of the same molecule?
Answer: 1330 nM

Question: And the TGI (U251 CNS)?
Answer: 2730 nM

Question: And the GI50 (HCT-116 colon)?
Answer: 170 nM

Question: What about the TGI (HCT-116 colon) of the same molecule?
Answer: 344 nM

Question: And the GI50 (OVCAR-5 ovarian)?
Answer: 935 nM

Question: And the TGI (OVCAR-5 ovarian)?
Answer: 2440 nM

Question: And the GI50 (EKVX NSCLC)?
Answer: 685 nM

Question: What about the TGI (EKVX NSCLC) of the same molecule?
Answer: 1810 nM

Question: And the GI50 (SNB-19 CNS)?
Answer: 1710 nM

Question: And the TGI (SNB-19 CNS)?
Answer: 3.28 µM

Question: What about the GI50 (HCC-2998 colon) of the same molecule?
Answer: 1290 nM

Question: What about the TGI (HCC-2998 colon) of the same molecule?
Answer: 2910 nM

Question: What about the GI50 (SF-268 CNS) of the same molecule?
Answer: 1490 nM

Question: And the TGI (SF-268 CNS)?
Answer: 3.06 µM

Question: And the GI50 (SK-MEL-28 melanoma)?
Answer: 1500 nM

Question: And the TGI (SK-MEL-28 melanoma)?
Answer: 2870 nM

Question: And the GI50 (786-0 renal)?
Answer: 708 nM

Question: And the TGI (786-0 renal)?
Answer: 2010 nM

Question: And the GI50 (SNB-75 CNS)?
Answer: 1440 nM

Question: And the TGI (SNB-75 CNS)?
Answer: 3.01 µM

Question: And the GI50 (COLO 205 colon)?
Answer: 174 nM

Question: And the TGI (COLO 205 colon)?
Answer: 359 nM

Question: And the GI50 (K-562 leukemia)?
Answer: 210 nM

Question: What about the TGI (K-562 leukemia) of the same molecule?
Answer: 507 nM

Question: What about the GI50 (MALME-3M melanoma) of the same molecule?
Answer: 605 nM

Question: And the TGI (MALME-3M melanoma)?
Answer: 1380 nM

Question: What about the GI50 (HOP-62 NSCLC) of the same molecule?
Answer: 1670 nM

Question: And the TGI (HOP-62 NSCLC)?
Answer: 3.07 µM

Question: And the GI50 (NCI-H522 lung)?
Answer: 157 nM

Question: And the TGI (NCI-H522 lung)?
Answer: 337 nM

Question: And the GI50 (NCI/ADR-RES ovarian)?
Answer: 1970 nM

Question: And the TGI (NCI/ADR-RES ovarian)?
Answer: 8.53 µM

Question: What about the GI50 (MCF7 breast) of the same molecule?
Answer: 169 nM

Question: And the TGI (MCF7 breast)?
Answer: 410 nM

Question: What about the GI50 (UO-31 renal) of the same molecule?
Answer: 437 nM

Question: And the TGI (UO-31 renal)?
Answer: 853 nM

Question: And the GI50 (HL-60(TB) leukemia)?
Answer: 272 nM

Question: And the TGI (HL-60(TB) leukemia)?
Answer: 902 nM

Question: And the GI50 (CAKI-1 renal)?
Answer: 1340 nM

Question: What about the TGI (CAKI-1 renal) of the same molecule?
Answer: 2720 nM

Question: And the GI50 (M14 melanoma)?
Answer: 1380 nM

Question: What about the TGI (M14 melanoma) of the same molecule?
Answer: 2830 nM

Question: What about the GI50 (RXF 393 renal) of the same molecule?
Answer: 663 nM

Question: And the TGI (RXF 393 renal)?
Answer: 2030 nM

Question: And the GI50 (SK-MEL-5 melanoma)?
Answer: 1560 nM

Question: And the TGI (SK-MEL-5 melanoma)?
Answer: 2940 nM

Question: What about the GI50 (OVCAR-3 ovarian) of the same molecule?
Answer: 167 nM

Question: And the TGI (OVCAR-3 ovarian)?
Answer: 310 nM

Question: And the GI50 (UACC-257 melanoma)?
Answer: 1160 nM

Question: What about the TGI (UACC-257 melanoma) of the same molecule?
Answer: 2530 nM

Question: What about the GI50 (HS 578T breast) of the same molecule?
Answer: 1800 nM

Question: And the TGI (HS 578T breast)?
Answer: 4.53 µM

Question: What about the GI50 (SF-539 CNS) of the same molecule?
Answer: 1440 nM

Question: And the TGI (SF-539 CNS)?
Answer: 2760 nM

Question: What about the GI50 (A498 renal) of the same molecule?
Answer: 1510 nM

Question: What about the TGI (A498 renal) of the same molecule?
Answer: 2860 nM

Question: And the GI50 (LOX IMVI melanoma)?
Answer: 183 nM

Question: What about the TGI (LOX IMVI melanoma) of the same molecule?
Answer: 377 nM

Question: And the GI50 (MOLT-4 leukemia)?
Answer: 195 nM

Question: And the TGI (MOLT-4 leukemia)?
Answer: 510 nM

Question: And the GI50 (SK-MEL-2 melanoma)?
Answer: 1340 nM

Question: What about the TGI (SK-MEL-2 melanoma) of the same molecule?
Answer: 2890 nM

Question: And the GI50 (OVCAR-4 ovarian)?
Answer: 146 nM

Question: What about the TGI (OVCAR-4 ovarian) of the same molecule?
Answer: 279 nM

Question: What about the GI50 (MDA-MB-435) of the same molecule?
Answer: 753 nM

Question: What about the TGI (MDA-MB-435) of the same molecule?
Answer: 2150 nM

Question: And the GI50 (TK-10 renal)?
Answer: 479 nM

Question: And the TGI (TK-10 renal)?
Answer: 974 nM

Question: And the GI50 (RPMI-8226 leukemia)?
Answer: 372 nM

Question: What about the TGI (RPMI-8226 leukemia) of the same molecule?
Answer: 1950 nM

Question: And the GI50 (MDA-MB-231 breast)?
Answer: 509 nM

Question: And the TGI (MDA-MB-231 breast)?
Answer: 1200 nM

Question: And the GI50 (HT29 colon)?
Answer: 179 nM

Question: And the TGI (HT29 colon)?
Answer: 423 nM

Question: What about the GI50 (SN12C renal) of the same molecule?
Answer: 347 nM

Question: What about the TGI (SN12C renal) of the same molecule?
Answer: 853 nM

Question: And the GI50 (BT-549 breast)?
Answer: 1620 nM

Question: What about the TGI (BT-549 breast) of the same molecule?
Answer: 2980 nM
